From patent US20110118262A1, “Pyrrolidinyl and Piperidinyl Compounds Useful as NHE-1 Inhibitiors” (BOEHRINGER INGELHEIM INTERNATIONAL GMBH, priority 2008, published 2011)

biological target: T1, NHE-1 (Homo sapiens, UniProt P19634); experiment: Evaluation of NHE-1 Inhibition (pHi) in HT-29 cells; type: cell-based; conditions: BCECF dye, 50% inhibition of the intracellular pH recovery, read-out: NHE1 HT29 pHi IC50
T1 construct: endogenous in cells; host or cells: HT-29
Procedure, shortened: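 Intracellular pH measured with BCECF in HT-29 cells after 24 h culture. Cells dye-loaded 30 min at 37° C, then acid-loaded with NH4Cl-containing choline buffer (pH 7.5) for 30 min at RT. Compounds added on an FDSS6000 fluorescence reader.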

T1 sequence (P19634 whole entry): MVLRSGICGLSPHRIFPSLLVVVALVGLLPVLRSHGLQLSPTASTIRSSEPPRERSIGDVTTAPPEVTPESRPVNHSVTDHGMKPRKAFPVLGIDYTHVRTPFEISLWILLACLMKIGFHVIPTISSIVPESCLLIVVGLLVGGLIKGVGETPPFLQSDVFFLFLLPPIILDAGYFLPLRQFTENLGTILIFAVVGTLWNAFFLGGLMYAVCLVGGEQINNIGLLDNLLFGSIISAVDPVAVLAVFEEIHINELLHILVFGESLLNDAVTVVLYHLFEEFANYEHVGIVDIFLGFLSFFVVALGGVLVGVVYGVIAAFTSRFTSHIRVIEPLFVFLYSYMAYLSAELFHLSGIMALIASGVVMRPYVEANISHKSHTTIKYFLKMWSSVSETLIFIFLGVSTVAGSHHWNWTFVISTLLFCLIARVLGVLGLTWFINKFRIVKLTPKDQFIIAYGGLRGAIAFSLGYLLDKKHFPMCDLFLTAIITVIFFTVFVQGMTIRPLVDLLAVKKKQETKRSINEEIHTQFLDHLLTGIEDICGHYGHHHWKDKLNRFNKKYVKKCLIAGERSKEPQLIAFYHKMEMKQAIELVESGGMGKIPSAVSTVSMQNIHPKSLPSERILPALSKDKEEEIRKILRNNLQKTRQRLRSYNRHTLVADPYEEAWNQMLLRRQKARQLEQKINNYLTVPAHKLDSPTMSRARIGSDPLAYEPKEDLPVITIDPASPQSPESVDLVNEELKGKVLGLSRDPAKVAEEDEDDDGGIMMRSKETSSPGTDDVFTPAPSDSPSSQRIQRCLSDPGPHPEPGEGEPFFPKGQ

SMILES | IC50
N=C(N)NC(=O)c1ccc(C2CCN(C(=O)c3ccco3)CC2)c(C(F)(F)F)c1 [N-{4-[1-(Furan-2-carbonyl)-piperidin-4-yl]-3-trifluoromethyl-benzoyl}-guanidine] | 55 nM
N=C(N)NC(=O)c1ccc(C2CCN(C(=O)c3ccco3)C2)c(C(F)(F)F)c1 (centres unmarked) [N-{4-[1-(Furan-2-carbonyl)-pyrrolidin-3-yl]-3-trifluoromethyl-benzoyl}-guanidine] | 11 nM
N=C(N)NC(=O)c1ccc(C2CCN(C(=O)c3cn4ccccc4n3)CC2)c(C(F)(F)F)c1 [N-{4-[1-(Imidazo[1,2-a]pyridine-2-carbonyl)-piperidin-4-yl]-3-trifluoromethyl-benzoyl}-guanidine] | 17 nM
N=C(N)NC(=O)c1ccc(C2CCN(C(=O)C3COCCN3)CC2)c(C(F)(F)F)c1 (centres unmarked) [N-{4-[1-(Morpholine-3-carbonyl)-piperidin-4-yl]-3-trifluoromethyl-benzoyl}-guanidine] | 35 nM
N=C(N)NC(=O)c1ccc(C2CCN(C(=O)c3cccc4ccccc34)CC2)c(C(F)(F)F)c1 [N-{4-[1-(Naphthalene-1-carbonyl)-piperidin-4-yl]-3-trifluoromethyl-benzoyl}-guanidine] | 260 nM
N=C(N)NC(=O)c1ccc(C2CCN(C(=O)C3CCCCN3)CC2)c(C(F)(F)F)c1 (centres unmarked) [N-{4-[1-(Piperidine-2-carbonyl)-piperidin-4-yl]-3-trifluoromethyl-benzoyl}-guanidine] | 9 nM
N=C(N)NC(=O)c1ccc(C2CCN(C(=O)C3CCCNC3)CC2)c(C(F)(F)F)c1 (centres unmarked) [N-{4-[1-(Piperidine-3-carbonyl)-piperidin-4-yl]-3-trifluoromethyl-benzoyl}-guanidine] | 17 nM
N=C(N)NC(=O)c1ccc(C2CCN(C(=O)C3CCNCC3)CC2)c(C(F)(F)F)c1 [N-{4-[1-(Piperidine-4-carbonyl)-piperidin-4-yl]-3-trifluoromethyl-benzoyl}-guanidine] | 6 nM
N=C(N)NC(=O)c1ccc(C2CCN(C(=O)c3ccccn3)CC2)c(C(F)(F)F)c1 [N-{4-[1-(Pyridine-2-carbonyl)-piperidin-4-yl]-3-trifluoromethyl-benzoyl}-guanidine] | 10 nM
N=C(N)NC(=O)c1ccc(C2CCN(C(=O)c3cccnc3)CC2)c(C(F)(F)F)c1 [N-{4-[1-(Pyridine-3-carbonyl)-piperidin-4-yl]-3-trifluoromethyl-benzoyl}-guanidine] | 10 nM
N=C(N)NC(=O)c1ccc(C2CCN(C(=O)c3ccncc3)CC2)c(C(F)(F)F)c1 [N-{4-[1-(Pyridine-4-carbonyl)-piperidin-4-yl]-3-trifluoromethyl-benzoyl}-guanidine] | 9 nM
N=C(N)NC(=O)c1ccc(C2CCN(C(=O)c3ccncn3)CC2)c(C(F)(F)F)c1 [N-{4-[1-(Pyrimidine-4-carbonyl)-piperidin-4-yl]-3-trifluoromethyl-benzoyl}-guanidine] | 19 nM
N=C(N)NC(=O)c1ccc(C2CCN(C(=O)C3CCCN3)CC2)c(C(F)(F)F)c1 (centres unmarked) [N-{4-[1-(Pyrrolidine-2-carbonyl)-piperidin-4-yl]-3-trifluoromethyl-benzoyl}-guanidine] | 11 nM
N=C(N)NC(=O)c1ccc(C2CCN(C(=O)C3CCNC3)CC2)c(C(F)(F)F)c1 (centres unmarked) [N-{4-[1-(Pyrrolidine-3-carbonyl)-piperidin-4-yl]-3-trifluoromethyl-benzoyl}-guanidine] | 5 nM
N=C(N)NC(=O)c1ccc(C2CCN(C(=O)c3cnc4ccccc4c3)CC2)c(C(F)(F)F)c1 [N-{4-[1-(Quinoline-3-carbonyl)-piperidin-4-yl]-3-trifluoromethyl-benzoyl}-guanidine] | 70 nM
N=C(N)NC(=O)c1ccc(C2CCN(C(=O)c3cccc4ncccc34)CC2)c(C(F)(F)F)c1 [N-{4-[1-(Quinoline-5-carbonyl)-piperidin-4-yl]-3-trifluoromethyl-benzoyl}-guanidine] | 46 nM
N=C(N)NC(=O)c1ccc(C2CCN(C(=O)c3ccc4ncccc4c3)CC2)c(C(F)(F)F)c1 [N-{4-[1-(Quinoline-6-carbonyl)-piperidin-4-yl]-3-trifluoromethyl-benzoyl}-guanidine] | 64 nM
N=C(N)NC(=O)c1ccc(C2CCN(C(=O)C3CCOCC3)CC2)c(C(F)(F)F)c1 [N-{4-[1-(Tetrahydro-pyran-4-carbonyl)-piperidin-4-yl]-3-trifluoromethyl-benzoyl}-guanidine] | 61 nM
N=C(N)NC(=O)c1ccc(C2CCN(C(=O)c3cscn3)CC2)c(C(F)(F)F)c1 [N-{4-[1-(Thiazole-4-carbonyl)-piperidin-4-yl]-3-trifluoromethyl-benzoyl}-guanidine] | 18 nM
N=C(N)NC(=O)c1ccc(C2CCN(C(=O)c3ccc4cccnc4n3)CC2)c(C(F)(F)F)c1 [N-{4-[1-([1,8]Naphthyridine-2-carbonyl)-piperidin-4-yl]-3-trifluoromethyl-benzoyl}-guanidine] | 25 nM
Cc1cc(C2CCN(C(=O)c3cccc(C(F)(F)F)c3)CC2)c(S(C)(=O)=O)cc1C(=O)NC(=N)N [N-{5-methanesulfonyl-2-methyl-4-[1-(3-trifluoromethyl-benzoyl)-piperidin-4-yl]-benzoyl}-guanidine] | 51 nM
COCC(=O)N1CCC(c2cc(C)c(C(=O)NC(=N)N)cc2S(C)(=O)=O)CC1 [N-{5-methanesulfonyl-4-[1-(2-methoxy-acetyl)-piperidin-4-yl]-2-methyl-benzoyl}-guanidine] | 15 nM
CCC(=O)N1CCC(c2cc(C)c(C(=O)NC(=N)N)cc2S(C)(=O)=O)CC1 [N-{5-methanesulfonyl-4-[1-propionyl-piperidin-4-yl]-2-methyl-benzoyl}-guanidine] | 16 nM
